According to US12077503B2, “Substituted cyclic amides and their use as herbicides” (FMC CORPORATION, priority 2015, dated 2024):

Columns and labels:
Format in all cases: in vivo
[1] = test system: ivy-leaved morning glory (Ipomoea hederacea); assay: Test G Post-Emergence Protocol; settings: Ipomoea, post-emergence, 312 h; for pest or weed control at 15.625 g/ha: 15.625 g ai/ha, evaluated after 13 days (100=total damage to plant; 0=no damage to plant), read-out: Morningglory, Ivy-leaved damage rating; for pest or weed control at 62.5 g/ha: 62.5 g ai/ha, read-out: Morningglory, Ivy-leaved damage rating (100=total damage to plant; 0=no damage to plant); for pest or weed control at 62.5 g/ha / pest or weed control at 250 g/ha: evaluated after 13 days; for pest or weed control at 250 g/ha: 250 g ai/ha, read-out: damage to plant, Morningglory, Ivy-leaved (100=total damage to plant; 0=no damage to plant)
How it was run: (§1)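 Values are percent visual injury at 13 days after treatment (0 none, 100 total). Treatment was a post-emergence spray at 15.625, 62.5 or 250 g/ha on 8-day-old pot plants kept at 24/16 °C.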

[2] = test system: velvetleaf (Abutilon theophrasti); assay: Test G Post-Emergence Protocol; settings: Abutilon theophrasti, post-emergence, 312 h; for pest or weed control at 15.625 g/ha: 15.625 g ai/ha, evaluated after 13 days (100=total damage to plant; 0=no damage to plant), read-out: Velvetleaf damage rating; for pest or weed control at 62.5 g/ha: 62.5 g ai/ha, read-out: Velvetleaf damage rating (100=total damage to plant; 0=no damage to plant); for pest or weed control at 62.5 g/ha / pest or weed control at 250 g/ha: evaluated after 13 days; for pest or weed control at 250 g/ha: 250 g ai/ha, read-out: damage to plant, Velvetleaf (100=total damage to plant; 0=no damage to plant)
How it was run: as §1

corn (Zea mays) [3] = assay: Test G Post-Emergence Protocol; settings: Zea mays, post-emergence, 312 h; for plant injury at 15.625 g/ha: 15.625 g ai/ha, evaluated after 13 days (100=total damage to plant; 0=no damage to plant), read-out: Corn damage rating; for plant injury at 62.5 g/ha: 62.5 g ai/ha, read-out: Corn damage rating (100=total damage to plant; 0=no damage to plant); for plant injury at 62.5 g/ha / plant injury at 250 g/ha: evaluated after 13 days; for plant injury at 250 g/ha: 250 g ai/ha, read-out: damage to plant, Corn (100=total damage to plant; 0=no damage to plant)
How it was run: as §1

[4] = test system: giant foxtail (Setaria faberi); assay: Test G Post-Emergence Protocol; settings: Setaria faberi, post-emergence, 312 h; for pest or weed control at 15.625 g/ha: 15.625 g ai/ha, evaluated after 13 days (100=total damage to plant; 0=no damage to plant), read-out: Foxtail, Giant damage rating; for pest or weed control at 62.5 g/ha: 62.5 g ai/ha, read-out: Foxtail, Giant damage rating (100=total damage to plant; 0=no damage to plant); for pest or weed control at 62.5 g/ha / pest or weed control at 250 g/ha: evaluated after 13 days; for pest or weed control at 250 g/ha: 250 g ai/ha, read-out: damage to plant, Foxtail, Giant (100=total damage to plant; 0=no damage to plant)
How it was run: as §1

[5] = test system: barnyardgrass (Echinochloa crus-galli); assay: Test G Post-Emergence Protocol; settings: Echinochloa crus-galli, post-emergence, 312 h; for pest or weed control at 15.625 g/ha: 15.625 g ai/ha, evaluated after 13 days (100=total damage to plant; 0=no damage to plant), read-out: Barnyardgrass damage rating; for pest or weed control at 62.5 g/ha: 62.5 g ai/ha, read-out: Barnyardgrass damage rating (100=total damage to plant; 0=no damage to plant); for pest or weed control at 62.5 g/ha / pest or weed control at 250 g/ha: evaluated after 13 days; for pest or weed control at 250 g/ha: 250 g ai/ha, read-out: damage to plant, Barnyardgrass (100=total damage to plant; 0=no damage to plant)
How it was run: as §1

[6] = test system: redroot pigweed (Amaranthus retroflexus); assay: Test G Post-Emergence Protocol; settings: Amaranthus retroflexus, post-emergence, 312 h; for pest or weed control at 15.625 g/ha: 15.625 g ai/ha, evaluated after 13 days (100=total damage to plant; 0=no damage to plant), read-out: Pigweed, Redroot damage rating; for pest or weed control at 62.5 g/ha: 62.5 g ai/ha, read-out: Pigweed, Redroot damage rating (100=total damage to plant; 0=no damage to plant); for pest or weed control at 62.5 g/ha / pest or weed control at 250 g/ha: evaluated after 13 days; for pest or weed control at 250 g/ha: 250 g ai/ha, read-out: damage to plant, Pigweed, Redroot (100=total damage to plant; 0=no damage to plant)
How it was run: as §1

[7] = test system: ivy-leaved morning glory (Ipomoea hederacea); assay: Test G Pre-Emergence Protocol; settings: Ipomoea, pre-emergence, 312 h, evaluated after 13 days; for pest or weed control at 15.625 g/ha: 15.625 g ai/ha, read-out: Morning-glory, Ivy-leaved damage rating (100=total damage to plant; 0=no damage to plant); for pest or weed control at 62.5 g/ha: 62.5 g ai/ha, 100=total damage to plant, 0=no damage to plant, read-out: plant damage rating, Morningglory, Ivy-leaved; for pest or weed control at 250 g/ha: 250 g ai/ha, read-out: Morningglory, Ivy-leaved damage rating (100=total damage to plant; 0=no damage to plant)
How it was run: (§2)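 Test compound in 0.5% Tween 20 acetone/water (50:50) was applied at three rates (15.625, 62.5, 250 g/ha) to soil sown one day earlier. After 13 days plants were scored for injury, where 0 means unaffected and 100 means completely damaged.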

[8] = test system: velvetleaf (Abutilon theophrasti); assay: Test G Pre-Emergence Protocol; settings: Abutilon theophrasti, pre-emergence, 312 h, evaluated after 13 days; for pest or weed control at 15.625 g/ha: 15.625 g ai/ha; for pest or weed control at 15.625 g/ha / pest or weed control at 250 g/ha: read-out: Velvetleaf damage rating (100=total damage to plant; 0=no damage to plant); for pest or weed control at 62.5 g/ha: 62.5 g ai/ha, 100=total damage to plant, 0=no damage to plant, read-out: plant damage rating, Velvetleaf; for pest or weed control at 250 g/ha: 250 g ai/ha
How it was run: as §2

corn (Zea mays) [9] = assay: Test G Pre-Emergence Protocol; settings: Zea mays, pre-emergence, 312 h, evaluated after 13 days; for plant injury at 15.625 g/ha: 15.625 g ai/ha; for plant injury at 15.625 g/ha / plant injury at 250 g/ha: read-out: Corn damage rating (100=total damage to plant; 0=no damage to plant); for plant injury at 62.5 g/ha: 62.5 g ai/ha, 100=total damage to plant, 0=no damage to plant, read-out: plant damage rating, Corn; for plant injury at 250 g/ha: 250 g ai/ha
How it was run: as §2

[10] = test system: giant foxtail (Setaria faberi); assay: Test G Pre-Emergence Protocol; settings: Setaria faberi, pre-emergence, 312 h, evaluated after 13 days; for pest or weed control at 15.625 g/ha: 15.625 g ai/ha; for pest or weed control at 15.625 g/ha / pest or weed control at 250 g/ha: read-out: Foxtail, Giant damage rating (100=total damage to plant; 0=no damage to plant); for pest or weed control at 62.5 g/ha: 62.5 g ai/ha, 100=total damage to plant, 0=no damage to plant, read-out: plant damage rating, Foxtail, Giant; for pest or weed control at 250 g/ha: 250 g ai/ha
How it was run: as §2

[11] = test system: barnyardgrass (Echinochloa crus-galli); assay: Test G Pre-Emergence Protocol; settings: Echinochloa crus-galli, pre-emergence, 312 h, evaluated after 13 days; for pest or weed control at 15.625 g/ha: 15.625 g ai/ha, read-out: Barnyard grass damage rating (100=total damage to plant; 0=no damage to plant); for pest or weed control at 62.5 g/ha: 62.5 g ai/ha, 100=total damage to plant, 0=no damage to plant, read-out: plant damage rating, Barnyardgrass; for pest or weed control at 250 g/ha: 250 g ai/ha, read-out: Barnyardgrass damage rating (100=total damage to plant; 0=no damage to plant)
How it was run: as §2

[12] = test system: redroot pigweed (Amaranthus retroflexus); assay: Test G Pre-Emergence Protocol; settings: Amaranthus retroflexus, pre-emergence, 312 h, evaluated after 13 days; for pest or weed control at 15.625 g/ha: 15.625 g ai/ha; for pest or weed control at 15.625 g/ha / pest or weed control at 250 g/ha: read-out: Pigweed, Redroot damage rating (100=total damage to plant; 0=no damage to plant); for pest or weed control at 62.5 g/ha: 62.5 g ai/ha, 100=total damage to plant, 0=no damage to plant, read-out: plant damage rating, Pigweed, Redroot; for pest or weed control at 250 g/ha: 250 g ai/ha
How it was run: as §2

Cc1cc(C(F)(F)F)ccc1NC(=O)[C@H]1C(=O)N(C)C[C@@H]1c1ccc(C(F)(F)F)cc1 (racemic) [Compound 1411]
0%: pest or weed control at 15.625 g/ha [1] | pest or weed control at 62.5 g/ha [1] | pest or weed control at 250 g/ha [1] | pest or weed control at 15.625 g/ha [2] | pest or weed control at 62.5 g/ha [2] | pest or weed control at 250 g/ha [2] | plant injury at 15.625 g/ha (corn (Zea mays) [3]) | plant injury at 62.5 g/ha (corn (Zea mays) [3]) | plant injury at 250 g/ha (corn (Zea mays) [3]) | pest or weed control at 15.625 g/ha [4] | pest or weed control at 62.5 g/ha [4] | pest or weed control at 250 g/ha [4] | pest or weed control at 15.625 g/ha [5] | pest or weed control at 62.5 g/ha [5] | pest or weed control at 250 g/ha [5] | pest or weed control at 15.625 g/ha [6] | pest or weed control at 62.5 g/ha [6] | pest or weed control at 250 g/ha [6] | pest or weed control at 15.625 g/ha [7] | pest or weed control at 62.5 g/ha [7] | pest or weed control at 250 g/ha [7] | pest or weed control at 15.625 g/ha [8] | pest or weed control at 62.5 g/ha [8] | pest or weed control at 250 g/ha [8] | plant injury at 15.625 g/ha (corn (Zea mays) [9]) | plant injury at 62.5 g/ha (corn (Zea mays) [9]) | plant injury at 250 g/ha (corn (Zea mays) [9]) | pest or weed control at 15.625 g/ha [10] | pest or weed control at 62.5 g/ha [10] | pest or weed control at 250 g/ha [10] | pest or weed control at 15.625 g/ha [11] | pest or weed control at 62.5 g/ha [11] | pest or weed control at 250 g/ha [11] | pest or weed control at 15.625 g/ha [12] | pest or weed control at 62.5 g/ha [12] | pest or weed control at 250 g/ha [12]

COC(=O)c1nccc(NC(=O)[C@@H]2C(=O)N(C)C[C@H]2c2ccc(C(F)(F)F)cc2)n1 (racemic) [Compound 1537]
0%: pest or weed control at 15.625 g/ha [1] | pest or weed control at 62.5 g/ha [1] | pest or weed control at 250 g/ha [1] | pest or weed control at 15.625 g/ha [2] | pest or weed control at 62.5 g/ha [2] | pest or weed control at 250 g/ha [2] | plant injury at 15.625 g/ha (corn (Zea mays) [3]) | plant injury at 62.5 g/ha (corn (Zea mays) [3]) | plant injury at 250 g/ha (corn (Zea mays) [3]) | pest or weed control at 15.625 g/ha [4] | pest or weed control at 62.5 g/ha [4] | pest or weed control at 250 g/ha [4] | pest or weed control at 15.625 g/ha [5] | pest or weed control at 62.5 g/ha [5] | pest or weed control at 250 g/ha [5] | pest or weed control at 15.625 g/ha [6] | pest or weed control at 62.5 g/ha [6] | pest or weed control at 250 g/ha [6] | pest or weed control at 15.625 g/ha [7] | pest or weed control at 62.5 g/ha [7] | pest or weed control at 250 g/ha [7] | pest or weed control at 15.625 g/ha [8] | pest or weed control at 62.5 g/ha [8] | pest or weed control at 250 g/ha [8] | plant injury at 15.625 g/ha (corn (Zea mays) [9]) | plant injury at 62.5 g/ha (corn (Zea mays) [9]) | plant injury at 250 g/ha (corn (Zea mays) [9]) | pest or weed control at 15.625 g/ha [10] | pest or weed control at 62.5 g/ha [10] | pest or weed control at 250 g/ha [10] | pest or weed control at 15.625 g/ha [11] | pest or weed control at 62.5 g/ha [11] | pest or weed control at 250 g/ha [11] | pest or weed control at 15.625 g/ha [12] | pest or weed control at 62.5 g/ha [12] | pest or weed control at 250 g/ha [12]
